Data from patent US4931457A, “Naphthylamino-and naphthyloxy-pyridinamine comounds useful as topical antiinflammatory agents for the treatment of skin disorders” (Hoechst-Roussel Pharmaceuticals Inc., priority 1989, dated 1990).
Where a name gives a salt, the structure may show the parent alone. Read-outs that look alike come from different tables or passages of the source.

Experiments:
[1] = system: mouse ear edema induced by topical application of arachidonic acid; experiment: Arachidonic Acid-Induced Ear Edema (AAEE); assay type: in vivo, Female Swiss Webster mice; conditions: for AAEE, ear edema: 1 mg (1.0 mg/ear), arachidonic acid 4 mg/ear
Description: The purpose of this assay was to determine the ability of a topically-applied compound to prevent mouse ear edema induced by topical application of arachidonic acid. Female Swiss Webster mice topically received vehicle or test compound (1.0 mg/ear) on both ears (10 μl on outer and inner ears). After 30 minutes, the right ear of all groups received arachidonic acid (4 mg/ear) and the left ear received vehicle alone. After an additional 1 hour, the mice were sacrificed and an ear punch (4 mm) was taken from each ear. The difference in right and left ear punch weights for each animal was determined to assess activity. […] See Young, J. M. et al., Invest. Dermatol., 80, (1983), pp 48-52.

[2] = system: naja naja (snake venom) phospholipase A2 -induced paw edema; experiment: Phospholipase A2-induced Paw Edema (PIPE); assay type: in vivo, male Wistar rats; conditions: 0.1 M; injected with PLA2 (3 units/paw) in subplantar region of rat left hindpaw; two hours
Description: The ability of compounds to prevent naja naja (snake venom) phospholipase A2 -induced paw edema in male Wistar rats (100-125 g) was measured. PLA2 (3 units/paw) alone or with 0.1M of the test compound was injected in the subplantar region of the rat left hindpaw. Immediately subsequent to the injection and at two hours post administration the paw was immersed in a mercury bath, and paw displacement was measured on a recorder via a transducer. […] See Giessler, A. J. et al., Agents and Actions, Vol. 10, Trends in Inflammation Research (1981), p. 195.

porcine pancreatic PLA2 = porcine pancreatic PLA2 (Sus scrofa, UniProt P00592); experiment: biochemical
Description: The ability of a compound to modulate PLA2 activity (cleavage of ^14 C-dipalmitoyl phosphotidylcholine at the 2-position to ^14 C-palmitic acid) was quantitated in this assay. The reaction mixture contained Tris buffer (25 mM), pH 8.0, calcium chloride (2.0 mM), bovine serum albumin (0.5 mg), dipalmitoyl phosphotidylcholine (8×10^-5M), (^14 C-palmitoyl)dipalmitoyl phosphotidylcholine (6×10^3cpm), porcine pancreatic PLA2 (3.2 units) and the test compound. The reaction was run at 37° C. in a shaking incubator. The reaction was quenched and an internal standard was added in order to determine sample recovery. The samples were loaded onto C18 columns, eluted with ethanol, and the radioactivity was then measured. […] See Feyen, J. H. M., et al., Journal of Chromatography 259 (1983), pp. 338-340.

[3] = system: ear edema induced by topical application of TPA (phorbol 12-myristate acetate); experiment: TPA-Induced Ear Edema (TPAEE); assay type: in vivo, Female Swiss Webster mice; conditions: for TPAEE, ear edema: 10 μg (10 μg/ear), TPA 10 μg/ear, five hours
Description: The purpose of this assay was to determine the ability of a topically-applied compound to prevent ear edema induced by topical application of TPA (phorbol 12-myristate acetate). Female Swiss Webster mice topically received TPA (10 μg/ear) on the right ear and vehicle on the left ear. The test compound (10 μg/ear) was applied to both ears. After five hours, the animals were sacrificed and an ear punch (4 mm) was taken from each ear. The difference in right and left ear punch weights for each animal was determined to assess activity. […] See Young, J. M. et al., J. Invest. Dermatol., 80 (1983), pp. 48-52.

[4] = system: epidermal DNA synthesis (proliferation of skin); experiment: Epidermal DNA Synthesis (in vivo DNA); parameters: species or system HRS/J hairless mice; conditions: Standard; topical, 24 hours, 3H-thymidine incorporation
Description: The influence of compounds on the proliferation of skin was assessed by determining inhibition or stimulation of DNA synthesis. HRS/J hairless mice received topical application of a compound or vehicle alone on the dorsal aspect. After 24 hours, ^3 H-thymidine (25 μCi) was administered by intraperitoneal injection. After an additional hour, animals were sacrificed and the dorsal skin was removed. The epidermal layer was peeled from the dermis by heat separation. Unincorporated ^3 H-thymidine was removed by washing successively with trichloroacetic acid and ethanol. Samples were centrifuged at 2,000 rpm and supernatants discarded. The epidermal sheets were then extracted with warm trichloroacetic acid and the supernatants analyzed for ^3 H-thymidine incorporation by total DNA by a standard colorimetric assay. […] See Lowe, N. J., et at., Arch. Dermatol., 117 (1981), pp. 394-8; and Burton, K., Biochem. J. 62 (1956), pp. 315-22.

[5] = system: cultured human epidermal keratinocytes; experiment: Cultured Human Keratinocyte DNA Synthesis (in vitro DNA); assay type: cell-based; conditions: Standard, 24 hours incubation, 3H-thymidine incorporation
Description: The effect of a compound on the proliferation of cultured human epidermal keratinocytes was measured. After incubation with a test compound for 24 hours, the cultures were pulse-labelled for three hours with 5 μCi of ^3 H-thymidine. The cultures were extracted for DNA successively with trichloroacetic acid and ethanol, and thereafter dissolved with NaOH. The radioactive incorporation of ^3 H-thymidine into DNA was determined.

[6] = 0.01 M, in vitro, pH 8.0, 37° C., read-out: PLA2, difference vs. control
[7] = pH 8, read-out: PLA2, difference vs. control

Chain of porcine pancreatic PLA2 (P00592 23-146): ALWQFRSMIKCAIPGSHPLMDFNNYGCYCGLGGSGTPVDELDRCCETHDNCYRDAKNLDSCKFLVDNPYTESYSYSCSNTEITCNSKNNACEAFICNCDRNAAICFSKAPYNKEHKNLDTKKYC

O=[N+]([O-])c1cc[n+]([O-])cc1Oc1cccc2ccccc12 [3-(1-Naphthyloxy)-4-nitropyridine-N-oxide]
AAEE, ear edema [1]: -27%

Nc1ccncc1Oc1cccc2ccccc12 [3-(1-Naphthyloxy)-4-pyridinamine]
PIPE, difference in edema vs. control [2]: -60% | inhibition at 10000 µM (porcine pancreatic PLA2; [6]): 54% | AAEE, ear edema [1]: -66%

Nc1ccncc1Oc1ccc2ccccc2c1 [3-(2-Naphthyloxy)-4-pyridinamine]
AAEE, ear edema [1]: -59%

O=[N+]([O-])c1cc[n+]([O-])cc1Oc1ccc(Cl)c2ccccc12 [3-(4-Chloro-1-naphthyloxy)-4-nitropyridine-N-oxide]
TPAEE, ear edema [3]: -41%

Nc1ccncc1Oc1ccc(Cl)c2ccccc12 [3-(4-Chloro-1-naphthyloxy)-4-pyridinamine oxalate]
inhibition at 10000 µM (porcine pancreatic PLA2; [7]): 110%

COc1ccc(Oc2cnccc2N)c2ccccc12 [3-(4-Methoxy-1-naphthyloxy)-4-pyridinamine]
PIPE, difference in edema vs. control [2]: -40%

Nc1ccncc1Oc1cccc2c1CCCC2 [3-(5,6,7,8-Tetrahydro-1-naphthyloxy)-4-pyridinamine hydrochloride]
inhibition at 10000 µM (porcine pancreatic PLA2; [7]): 110%

O=[N+]([O-])c1cc[n+]([O-])cc1Oc1ccc2cc(Br)ccc2c1 [3-(6-Bromo-2-naphthyloxy)-4-nitropyridine-N-oxide]
TPAEE, ear edema [3]: -43%

O=[N+]([O-])c1cnccc1Oc1cccc2ccccc12 [4-(1-Naphthyloxy)-3-nitropyridine]
TPAEE, ear edema [3]: -72%

Cl.Nc1cnccc1Oc1cccc2ccccc12 [4-(1-Naphthyloxy)-3-pyridinamine hydrochloride]
TPAEE, ear edema [3]: -40%

O=[N+]([O-])c1cc[n+]([O-])cc1Oc1cccc2c1CCCC2 [4-Nitro-3-(5,6,7,8-tetrahydro-1-naphthyloxy)pyridine-N-oxide]
inhibition at 10000 µM (porcine pancreatic PLA2; [6]): 38%

O=[N+]([O-])c1cc[n+]([O-])cc1Nc1cccc2ccccc12 [N-(1-Naphthyl)-4-nitro-3-pyridinamine-N-oxide]
TPAEE, ear edema [3]: -40%

C[C@]12CCC(=O)C=C1CC[C@@H]1[C@@H]2[C@@H](O)C[C@@]2(C)[C@H]1CC[C@]2(O)C(=O)CO [hydrocortisone, reference compound]
ED50 ([3]; Standard, TPA ear edema, mouse): 47 μg/ear

COc1ccc2c(c1)c(CC(=O)O)c(C)n2C(=O)c1ccc(Cl)cc1 [indomethacin]
ED50 ([1]; Standard, arachidonic acid ear edema, mouse): 1.5 mg/ear | ED50 [4]: 1.75 mg/animal | IC50 [5]: 38 µM

CCN(CC)CCCC(C)Nc1c2ccc(Cl)cc2nc2ccc(OC)cc12 (stereo not shown) [quinacrine, reference compound]
IC50 (porcine pancreatic PLA2): 350 µM
